From PubChem BioAssay AID2060497 (Molecular Pharmacology Branch, DTP, NCI, 2025)
pIC50: −log10 of the molar value.

Tested on: 317291-083-R-J1-PDC complex spheroids, viability
Assay: Anticancer human tumor 317291-083-R-J1-PDC patient-derived soft tissue sarcoma cell line growth inhibition [GQUAD]
Details: for pIC50: curve of first compound; for viability, T/C: stronger effect = lower value; active means viability on the fitted dose curve at most 10% of control; inactive means the rest
Outline: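 Tumor cells were grown as complex spheroids with HUVEC endothelial cells and mesenchymal stem cells as stroma. G-quadruplex stabilizers were combined with targeted agents over half-log dilutions from near the clinical Cmax, or from 10 microM.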

[1] = second compound 0.0316 µM, first compound 0.0316 µM
[2] = second compound 0.0316 µM, first compound 0.1 µM
[3] = second compound 0.0316 µM, first compound 0.316 µM
[4] = second compound 0.0316 µM, first compound 1 µM
[5] = second compound 0.0316 µM, first compound 3.16 µM
[6] = second compound 0.0316 µM, first compound 10 µM
[7] = second compound 0.1 µM, first compound 0.0316 µM
[8] = second compound 0.1 µM, first compound 0.1 µM
[9] = second compound 0.1 µM, first compound 0.316 µM
[10] = second compound 0.1 µM, first compound 1 µM
[11] = second compound 0.1 µM, first compound 3.16 µM
[12] = second compound 0.1 µM, first compound 10 µM
[13] = second compound 0.316 µM, first compound 0.0316 µM
[14] = second compound 0.316 µM, first compound 0.1 µM
[15] = second compound 0.316 µM, first compound 0.316 µM
[16] = second compound 0.316 µM, first compound 1 µM
[17] = second compound 0.316 µM, first compound 3.16 µM
[18] = second compound 0.316 µM, first compound 10 µM
[19] = second compound 1 µM, first compound 0.0316 µM
[20] = second compound 1 µM, first compound 0.1 µM
[21] = second compound 1 µM, first compound 0.316 µM
[22] = second compound 1 µM, first compound 1 µM
[23] = second compound 1 µM, first compound 3.16 µM
[24] = second compound 1 µM, first compound 10 µM
[25] = second compound 3.16 µM, first compound 0.0316 µM
[26] = second compound 3.16 µM, first compound 0.1 µM
[27] = second compound 3.16 µM, first compound 0.316 µM
[28] = second compound 3.16 µM, first compound 1 µM
[29] = second compound 3.16 µM, first compound 3.16 µM
[30] = second compound 3.16 µM, first compound 10 µM
[31] = second compound 10 µM, first compound 0.0316 µM
[32] = second compound 10 µM, first compound 0.1 µM
[33] = second compound 10 µM, first compound 0.316 µM
[34] = second compound 10 µM, first compound 1 µM
[35] = second compound 10 µM, first compound 3.16 µM
[36] = second compound 10 µM, first compound 10 µM
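Further: spheroids exposed to compounds for one week before readout.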
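Wherever viability, T/C is given: percent viability relative to DMSO vehicle wells taken as 100%.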

CC1COCCN1c1cc(-c2ccnn2C)c2ccnc(-c3ccn[nH]3)c2n1 (stereo unspecified) + CN(C)c1ccc(Nc2c3ccc(NC(=O)CCN4CCCC4)cc3nc3cc(NC(=O)CCN4CCCC4)ccc23)cc1
7.37: pIC50 (second compound 0.316 µM)
active: viability, T/C [23] 7.25% | viability, T/C [24] 6.88% | viability, T/C [26] 7.15% | viability, T/C [27] 5.62% | viability, T/C [28] 4.31% | viability, T/C [29] 3.37% | viability, T/C [30] 2.05% | viability, T/C [31] 3.62% | viability, T/C [32] 5.3% | viability, T/C [33] 7.04% | viability, T/C [34] 4% | viability, T/C [35] 1.52% | viability, T/C [36] 0.66%
7.19: pIC50 (second compound 0.0316 µM)
> 7.50: pIC50 (second compound 1 µM) | pIC50 (second compound 3.16 µM) | pIC50 (second compound 10 µM)
7.18: pIC50 (second compound 0.1 µM)
inactive: viability, T/C [1] 87.2% | viability, T/C [2] 27.4% | viability, T/C [3] 17% | viability, T/C [4] 13.8% | viability, T/C [5] 13.8% | viability, T/C [6] 14.2% | viability, T/C [7] 84.5% | viability, T/C [8] 31.4% | viability, T/C [9] 14.9% | viability, T/C [10] 13.7% | viability, T/C [11] 12.1% | viability, T/C [12] 14% | viability, T/C [13] 59.1% | viability, T/C [14] 24.3% | viability, T/C [15] 15.2% | viability, T/C [16] 11.2% | viability, T/C [17] 15.5% | viability, T/C [18] 19.9% | viability, T/C [19] 41.1% | viability, T/C [20] 17% | viability, T/C [21] 33.6% | viability, T/C [22] 10.3% | viability, T/C [25] 25.8%

CC1COCCN1c1cc(C2(S(C)(=N)=O)CC2)nc(-c2ccnc3[nH]ccc23)n1 (stereo unspecified) + Cc1cnc(CNC(=O)c2c(=O)c3ccc(N4CCCN(C)CC4)nc3n3c2sc2ccccc23)cn1
active: viability, T/C [6] 10.4%
5.89: pIC50 (second compound 0.0316 µM)
6.31: pIC50 (second compound 0.1 µM)
> 7.50: pIC50 (second compound 0.316 µM) | pIC50 (second compound 1 µM) | pIC50 (second compound 3.16 µM) | pIC50 (second compound 10 µM)
inactive: viability, T/C [1] 97.2% | viability, T/C [2] 99.6% | viability, T/C [3] 69.2% | viability, T/C [4] 67.6% | viability, T/C [5] 19% | viability, T/C [7] 66.2% | viability, T/C [8] 111% | viability, T/C [9] 64.6% | viability, T/C [10] 34.4% | viability, T/C [11] 22.5% | viability, T/C [12] 23.2% | viability, T/C [13] 44% | viability, T/C [14] 42.2% | viability, T/C [15] 42.8% | viability, T/C [16] 35% | viability, T/C [17] 12.2% | viability, T/C [18] 18.2% | viability, T/C [19] 34.8% | viability, T/C [20] 60.1% | viability, T/C [21] 32.2% | viability, T/C [22] 20.8% | viability, T/C [23] 25.3% | viability, T/C [24] 14.8% | viability, T/C [25] 16.2% | viability, T/C [26] 22.4% | viability, T/C [27] 18% | viability, T/C [28] 26.7% | viability, T/C [29] 15.4% | viability, T/C [30] 14.6% | viability, T/C [31] 39.2% | viability, T/C [32] 19.8% | viability, T/C [33] 46.7% | viability, T/C [34] 9.84% | viability, T/C [35] 20.8% | viability, T/C [36] 9.87%

C=CCn1c(=O)c2cnc(Nc3ccc(N4CCN(C)CC4)cc3)nc2n1-c1cccc(C(C)(C)O)n1 + Cc1[nH]c2ccc(F)cc2c1-c1nc2c3cccnc3c3ncccc3c2[nH]1
> 7.50: pIC50 (second compound 3.16 µM) | pIC50 (second compound 10 µM)
6.92: pIC50 (second compound 0.0316 µM)
inactive: viability, T/C [1] 80.5% | viability, T/C [2] 55.3% | viability, T/C [3] 21.7% | viability, T/C [4] 17.8% | viability, T/C [5] 8.57% | viability, T/C [6] 9.56% | viability, T/C [7] 87% | viability, T/C [8] 59.7% | viability, T/C [9] 24.4% | viability, T/C [10] 12.8% | viability, T/C [11] 12% | viability, T/C [12] 11.9% | viability, T/C [13] 61.1% | viability, T/C [14] 40.1% | viability, T/C [15] 17.3% | viability, T/C [16] 11.3% | viability, T/C [19] 56% | viability, T/C [20] 25% | viability, T/C [21] 15.8% | viability, T/C [25] 25.2% | viability, T/C [26] 12.5% | viability, T/C [31] 33.5% | viability, T/C [32] 21.5% | viability, T/C [33] 13.4% | viability, T/C [34] 9.85%
7.24: pIC50 (second compound 0.316 µM)
7.40: pIC50 (second compound 1 µM)
active: viability, T/C [17] 10.9% | viability, T/C [18] 8.81% | viability, T/C [22] 7.15% | viability, T/C [23] 8.02% | viability, T/C [24] 10.3% | viability, T/C [27] 9.21% | viability, T/C [28] 5.63% | viability, T/C [29] 8.76% | viability, T/C [30] 6.68% | viability, T/C [35] 8.36% | viability, T/C [36] 9.58%
6.86: pIC50 (second compound 0.1 µM)
